According to patent US5652097A, “In vitro test to evaluate the inhibition potency of angiotensin II antagonists on angiotensinogen” (priority 1994, dated 1997):

Legend:
[1] = system: expression of pOCAT (ANG N-1498/+18) in Hepa 1-6 cells; settings: cited from earlier work
[2] = system: expression of pOGH (ANG N-1498/+18) in Hep G-TW7 cells; test: Stimulation of expression of pOGH (ANG N-1498/+18) in stable Hep G-TW7 cells by angiotensins, IR-hGH by RIA; assay type: cell-based, human; settings: 24 hours; for concentration giving maximal stimulation of expression of pOGH (ANG N-1498/+18): 10^-11 to 10^-5 mol/L tested
Description: The method for the selection of stable hepatoma transformants with high expression of pOGH (ANG N-1498/+18) was similar to that described previously for opossum kidney cells (Wang TT et al., Kidney Int., 1994, 46:703-710). Briefly, plasmids pOGH (ANG N-1498/+18) and pRSV-Neo fusion genes were co-transfected (20 μg each) into Hep G-2 cells (1×10^6 cells) utilizing calcium phosphate-mediated endocytosis (Ming M. et al., Am. J. Hypertens., 1993, 6:141-148). After transfection, the cells were cultured overnight in 5.0 ml of DMEM containing 10% FBS. Then the medium was replaced with fresh medium containing 10% FBS and 500 μg/ml of aminoglycoside G 418 (Geneticin, Gibco Inc.). The stable transformants which were able to grow in the presence of G 418 and which secreted high levels of IR-hGH into the medium were further subcloned using the method of limiting dilution. Those cells that had passed through at least three repetitions of limiting dilution and continued to secrete high levels of IR-hGH after three months in the presence of G 418 were considered to be stable clones. One clone of human hepatoma (Hep G-TW7) with pOGH (ANG N-1498/+18) integrated into the genomes of Hep G-2 cells was obtained. The clone (Hep G-TW7) was used in accordance with the present invention.
Hep G-TW7 cells were plated at a density of 1-2×10^5 cells/well in 6-well plates and incubated overnight in DMEM containing 1% depleted FBS (dFBS). Then cell growth was arrested by incubation in serum-free medium for 24 hours. Subsequently, various concentrations of AII (10^-11 to 10^-5 mol/L) were added to the culture medium containing 1% dFBS. At the end of the incubation period, media were collected and kept at -20° C. until assay for IR-hGH.
Cells were incubated for up to 24 hours in the presence of various concentrations of AII. Media were harvested after 24 hours of incubation and assayed for IR-hGH. Each point represents the mean ±S.D. of at least three dishes (*p<0.05, **p<0.01 and **p<0.005).Similar results were obtained from two other experiments. It appears that maximal stimulation of expression of the pOGH (ANG N-1498/+18) was found with 10^-9 mol/L AII (p<0.01). At other concentrations of AII, it appears that the stimulatory effect of AII is minimal or inhibited.
(§1) The radioimmunoassay kit for hGH (RIA-hGH) was a gift from NIADDK, NIH, USA. The double antibody RIA procedure was similar to that previously used for the radioimmunoassay of ovine placental lactogen (Chan JSD et al., Endocrinology, 1978, 102:1606-1613). NIAMDD-hGH-1 (AFP-4793 B) was used for both iodination and as a hormone standard.
Hep G-TW7 cells were plated at a density of 1-2×10^5 cells/well in 6-well plates and incubated overnight in DMEM containing 1% depleted fetal bovine serum (dFBS). […]

[3] = system: expression of pOGH (ANG N-1498/+18) fusion gene in Hep G-2 cells; test: Transient gene transfection assay of pOGH (ANG N-1498/+18) in Hep G-2 cells, IR-hGH by RIA; assay type: cell-based, human; settings: AII 10^-9 mol/L; for inhibition of the stimulatory effect of AII on expression of pOGH (ANG N-1498/+18): antagonist 10^-5 mol/L
Description: Plasmids or fusion genes were transfected into Hep G-2 cells utilizing calcium phosphate endocytosis as described previously (Ming M. et al., Am. J. Hypertens., 1993, 6:141-148). It was previously shown that optimal dose of DNA for gene transfection in mouse hepatoma (Hepa 1-6) cells is 20 μg of supercoiled DNA per 0.5-1×10^6 cells (Ming M. et al., Am. J. Hypertens., 1993, 6:141-148). Similar results were obtained in Hep G-2 cells. Thus, in present studies, a total of 20 μg DNA was routinely used in the cell transfection.
To study the effect of AII in the presence or absence of various AII antagonists on the expression of fusion gene in transient gene transfection assays, cells were incubated in DMEM without FBS, 10^-9 mol/L AII with or without 10^-5 mol/L AII antagonist were added on day 1 after DNA transfection. The media or cells were harvested on day 2 for assay of IR-hGH or CAT enzymatic activity, respectively.
In order to normalize the efficiency of transfection of pOGH (ANG N-1498/+18), 1 μg of pRSVCAT (a vector with the Rous Sarcoma Virus enhancer/promoter sequence fused to the 5'-end of the CAT coding sequence) was cotransfected with the pOGH (ANG N-1498/+18) (20 μg DNA). The results of pOGH (ANG N-1498/+18) were normalized to the efficiency of transfection of pRSVCAT. The levels of transfection efficiency for pOGH (ANG N-1498/+18) in human hepatoma cells was 25+12% as compared to pRSVCAT.
Results are expressed as the percentage of the control (without addition of AII antagonist, 100%), mean ±S.D. AII (10^-9 mol/L) stimulated the expression of the ANG-GH fusion gene by 1.4-fold (p<0.01) as compared to the control (absence of AII) in Hep G-2 cells. In the presence of Lorsatan™ (10^-5 mol/L) or Saralasin™ (10^-5 mol/L), the stimulatory effect of AII was inhibited.
as §1

[4] = system: expression of pOGH (ANG N-1498/+18) in Hep G-TW7 cells stimulated by AII; test: Inhibition of AII-stimulated expression of pOGH (ANG N-1498/+18) in Hep G-TW7 cells, IR-hGH by RIA; assay type: cell-based, human; settings: AII 10^-9 mol/L, 24 hours; for effect on the stimulatory effect of AII on expression of pOGH (ANG N-1498/+18): various concentrations of test substance
Description: Hep G-TW7 cells were plated at a density of 1-2×10^5 cells/well in a. 6-well plate and incubated overnight in DMEM containing 1% depleted FBS (dFBS). Then cell growth was arrested by incubation in serum-free medium for 24 hours. Subsequently, various concentrations (10^-9 to 10^-5 mol/L) of Lorsatan™, Saralasin™ and CGP 42112A™ were added to the culture medium containing 1% dFBS in the presence of 10^-9 mol/L AII and incubated for 24 hours. At the end of the incubation period, media were collected and kept at -20° C. until assay.
Cells were incubated for up to 24 hours in the presence of AII (10-9mol/L) and various concentrations of Lorsatan™ (10^-9 to 10^-5 mol/L) or Saralasin™ (10^-9 to 10^-5 mol/L) or CGP 42112A™ (10^-9 to 10^-5 mol/L). Media harvested and assayed for the level of IR-hGH.
Hep G-TW7 cells were plated at a density of 1-2×10^5 cells/well in a 6-well plate and incubated overnight in DMEM containing 1% dFBS. Then cells growth was arrested by incubation in serum-free medium for 24 hours. […] At the end of the incubation period, media were collected and kept at -20° C. until assay.
Media were harvested and assayed for the level of IR-hGH.
The radioimmunoassay kit for hGH (RIA-hGH) was a gift from NIADDK, NIH, USA. […] NIAMDD-hGH-1 (AFP-4793 B) was used for both iodination and as a hormone standard.

[5] = system: expression of pOCAT (ANG N-1498/+18) in hepatoma cells; test: Transient gene transfection of pOCAT (ANG N-1498/+18) in the presence of hGH, CAT assay; assay type: cell-based, human; settings: hGH as high as 4.5 mmol/L
From the text: The method for the CAT assay has been described previously (Ming M. et al., Am. J. Hypertens., 1993, 6:141-148). The results of all CAT assays are given as a mean+S.D. in triplicates.
In accordance with the present invention, the plasmid pOGH (ANG N-1498/+18) was employed to study the effect of AII (FIGS. 2 to 6). Since receptors for hGH are presented in Hep G-2 cells, this raised the possibility that the hGH secreted into the medium may have a stimulatory effect on the expression of the ANG gene. Thus, in order to investigate this possibility, transient gene transfection experiments were performed by employing pOCAT (ANG N-1498/+18) (Ming M. et al., Am. J. Hypertens., 1993, 6:141-148), in the presence of hGH. […] The use of plasmid pOGH (ANG N-1498/+18) in accordance with the present invention is appropriate.

## Nc1ncnc2c1nc(Br)n2[C@@H]1O[C@@H]2COP(=O)(O)O[C@H]2[C@H]1O [8-Br-cAMP, 8-Bromo-cAMP]
[1]; added with DEX
  effect on the stimulatory effect of dexamethasone on expression of ANG-CAT fusion genes: enhanced the stimulatory effect
[1]
  effect on expression of ANG-CAT fusion genes, substance alone: no stimulatory effect

## CC[C@H](C)[C@H](NC(=O)[C@H](Cc1ccc(O)cc1)NC(=O)[C@@H](NC(=O)[C@@H](N)CCCNC(=N)N)C(C)C)C(=O)N[C@@H](Cc1c[nH]cn1)C(=O)N1CCC[C@H]1C(=O)N[C@@H](Cc1ccccc1)C(=O)O [AIII, angiotensin III]
[2]
  effective dose for stimulating the expression of pOGH (ANG N-1498/+18): > 10^-5 mol/L

## CCCCc1nc(Cl)c(CO)n1Cc1ccc(-c2ccccc2-c2nn[nH]n2)cc1 [Lorsatan]
[3]
  inhibition of the stimulatory effect of AII on expression of pOGH (ANG N-1498/+18): inhibited
[4]
  effect on the stimulatory effect of AII on expression of pOGH (ANG N-1498/+18): inhibits the stimulatory effect of AII
[4]; Homo sapiens, read-out: effective dose for the inhibition of the AII-stimulated expression of pOGH (ANG N-1498/+18)
  minimal effective concentration: 0.001 µM

## CNCC(=O)N[C@@H](CCCN=C(N)N)C(=O)N[C@H](C(=O)N[C@@H](Cc1ccc(O)cc1)C(=O)N[C@H](C(=O)N[C@@H](Cc1cnc[nH]1)C(=O)N1CCC[C@H]1C(=O)N[C@@H](C)C(=O)O)C(C)C)C(C)C [Saralasin]
[3]
  inhibition of the stimulatory effect of AII on expression of pOGH (ANG N-1498/+18): inhibited
[4]
  effective dose for the inhibition of the AII-stimulated expression of pOGH (ANG N-1498/+18): 10^-7 mol/L
  effect on the stimulatory effect of AII on expression of pOGH (ANG N-1498/+18): inhibits the stimulatory effect of AII

## CN[C@@H]1C[C@H]2O[C@@](C)([C@@H]1OC)n1c3ccccc3c3c4c(c5c6ccccc6n2c5c31)C(=O)NC4 [Staurosporine]
[4]
  effect on the stimulatory effect of AII on expression of pOGH (ANG N-1498/+18): inhibits the stimulatory effect of AII

## C[C@@H]1C[C@H]2[C@@H]3CCC4=CC(=O)C=C[C@]4(C)[C@@]3(F)[C@@H](O)C[C@]2(C)[C@@]1(O)C(=O)CO [dexamethasone]
[1]
  effect on expression of ANG-CAT fusion genes, substance alone: stimulates the expression

## CGP 42112A
[3]
  inhibition of the stimulatory effect of AII on expression of pOGH (ANG N-1498/+18): no inhibitory effect
[4]
  effective dose for the inhibition of the AII-stimulated expression of pOGH (ANG N-1498/+18): > 10^-5 mol/L

## angiotensin I (DRVYIHPFHL; Angiotensin-1; UniProt P01019 25-34, looked up) [AI]
[2]
  concentration giving maximal stimulation of expression of pOGH (ANG N-1498/+18): 10^-7 mol/L

## angiotensin II (DRVYIHPF; Angiotensin-2; UniProt P01019 25-32, looked up) [AII, peptide derived from angiotensinogen; stimulus of ANG gene expression]
[2]
  effective dose for stimulating the expression of pOGH (ANG N-1498/+18): 10^-9 mol/L
  concentration giving maximal stimulation of expression of pOGH (ANG N-1498/+18): 10^-9 mol/L
[3]; p<0.01, 0.001 µM
  stimulation of the expression of the ANG-GH fusion gene as compared to the control (absence of AII): 1.4 fold

## hGH: human growth hormone
[5]
  effect of hGH on expression of pOCAT (ANG N-1498/+18): No significant increase
